This note sets out measurements from patent publication US6414001B2, “Ether and amide compounds preparation thereof composition containing same and use thereof as antidiadetics” (Kotobuki Pharmaceutical Co. Ltd., priority 2000, dated 2002).

Broadly, the inhibition in vivo is the change of the read-out against control, counted positive when it falls. Higher therefore signals a response far below the control. What is called melting point is the temperature, or range, at which the solid turns liquid.

The subject of series [1] is db/db mice. As to the kind of experiment: Hypoglycemic activity in mice. The note with it: for inhibition in vivo at 30 mg/kg: 30 mg/kg once a day for four consecutive days; for inhibition in vivo at 3 mg/kg: 3 mg/kg once a day for four consecutive days. It counts as in vivo. The protocol:
Hypoglycemic Activity in Mice
Test compounds were suspended in 0.5% Methyl cellulose solution and administered (p.o.) to db/db mice (obtained from Nihon Clea) at a range of 3-30 mg/kg once a day for four consecutive days. Troglitazone (300 mg/kg) was also administrated for control.

[2] abbreviates: Mus musculus, po, 10 mg/kg once a day for four consecutive days, suspended in 0.5% methyl cellulose.
The mark [3] stands for this setting: Mus musculus, po, suspended in 0.5% methyl cellulose.

On to `Cc1oc(-c2ccccc2)nc1CCOc1ccc(NC(=O)C(=O)O)cc1` [Compound 8, 2-[4-(2-(5-Methyl-2-phenyl-1,3-oxazole-4-yl)ethoxy)phenyl]amino-2-oxo-acetic acid], for which the melting point lay in the range of 196 to 198 °C. Besides, the inhibition in vivo at 10 mg/kg in series [1] (setting [2]) stood at 26%.

The compound `Cc1oc(-c2ccccc2)nc1CC(=O)Nc1ccc(NS(=O)(=O)C(F)(F)F)cc1` [Compound 48] came in with a melting point of 147 to 149 °C. The same compound showed an inhibition in vivo at 30 mg/kg in series [1] (setting [3]) of 65.4%.

Take `Cc1oc(-c2ccc(O)c(C(C)(C)C)c2)nc1CCOc1ccc(NS(=O)(=O)C(F)(F)F)cc1` [Compound 70]: 30 mg/kg produced 51% inhibition in vivo in series [1] (setting [3]).

Consider `Cc1oc(-c2ccc(F)cc2)nc1CCOc1ccc(NS(=O)(=O)C(F)(F)F)cc1` [Compound 59], for which the inhibition in vivo at 3 mg/kg in series [1] (setting [3]) was 18.4%.

`Cc1oc(-c2ccccc2)nc1CC(=O)Nc1ccc(C(=O)O)c(O)c1` [Compound 52]: the inhibition in vivo at 30 mg/kg in series [1] (setting [3]) came out at 10.5%.

Compound `Cc1oc(-c2cc(C(C)(C)C)c(OCC(=O)O)c(C(C)(C)C)c2)nc1CCOc1ccc(NS(=O)(=O)C(F)(F)F)cc1` [Compound 68] returned an inhibition in vivo at 3 mg/kg in series [1] (setting [3]) of 21.2%.

In series [1] (setting [2]), `CN(CCOc1ccc(NS(=O)(=O)C(F)(F)F)cc1)c1ccccn1` [Compound 11, 4-[2-(N-Methyl-N-2-pyridyl)aminoethoxy]benzene trifluoromethanesulfonamide] yielded an inhibition in vivo at 10 mg/kg of 15.4%.

For the compound `Cc1oc(-c2ccc(OCC(=O)O)cc2)nc1CCOc1ccc(NS(=O)(=O)C(F)(F)F)cc1` [Compound 67], the melting point lay in the range of 167 to 168 °C. The inhibition in vivo at 3 mg/kg in series [1] (setting [3]) came to 33.1%.

Turning to “4-[2-(5-Methyl-2-phenyl-1,3-oxazole-4-yl)ethoxy]benzene trifluoromethyl sulfonamide [Compound 2]”, the “Hypoglycemic activity (%)” value in series [1] (p.o., 10 mg/kg once a day for four consecutive days, suspended in 0.5% methyl cellulose) worked out at 49.0%.

As to `Cc1oc(-c2ccccc2)nc1CCOc1ccc(NS(=O)(=O)C(F)(F)F)c(O)c1` [Compound 42], the inhibition in vivo at 10 mg/kg in series [1] (setting [2]) amounted to 29.6%.

As to `Cc1oc(-c2ccccc2)nc1CCOc1ccc(CNS(=O)(=O)C(F)(F)F)cc1` [Compound 9, 2-[4-(2-(5-Methyl-2-phenyl-1,3-oxazole-4-yl)ethoxy)benzyl]trifluoromethylsulfonamide], the melting point was 113 to 115 °C. In addition, 10 mg/kg produced 24% inhibition in vivo in series [1] (setting [2]).

As to `COC(=O)c1ccc(OCCc2nc(-c3ccccc3)oc2C)cc1O` [Compound 25, 2-Hydroxy-4-[2-(5-methyl-2-phenyl-1,3-oxazole-4-yl)ethoxy]benzoic acid methyl ester], the melting point was 133 to 134 °C.

In turn, `CCOc1cc(OCCc2nc(-c3ccccc3)oc2C)ccc1C(=O)O` [Compound 31, 2-Ethoxy-4-[2-(5-methyl-2-phenyl-1,3-oxazole-4-yl)ethoxy]benzoic acid] displayed an inhibition in vivo at 30 mg/kg in series [1] (setting [3]) of 19%.

`COc1ccc(-c2nc(CCOc3ccc(NS(=O)(=O)C(F)(F)F)cc3)c(C)o2)cc1` [Compound 18] came in with an inhibition in vivo at 10 mg/kg in series [1] (setting [2]) of 34.7%.

For the compound `CCc1ccc(CCOc2ccc(NS(=O)(=O)C(F)(F)F)cc2)nc1` [Compound 10, 4-[2-(5-Ethylpyridine-2-yl)ethoxy]benzene trifluoromethylsulfonamide], the melting point lay in the range of 76 to 78 °C. The compound further had an inhibition in vivo at 10 mg/kg in series [1] (setting [2]) of 32.4%.

On to `Cc1oc(-c2cc(C(C)(C)C)c(O)c(C(C)(C)C)c2)nc1CCOc1ccc(NS(=O)(=O)C(F)(F)F)cc1` [Compound 19], for which, in series [1] (setting [2]), the inhibition in vivo at 10 mg/kg stood at 12.8%.

As to `Cc1oc(-c2ccc(Cl)cc2)nc1CCOc1ccc(NS(=O)(=O)C(F)(F)F)cc1` [Compound 58], 3 mg/kg produced 43.4% inhibition in vivo in series [1] (setting [3]).

In turn, `Cc1c(C)c2c(c(C)c1O)CCC(C)(COc1ccc(CC3SC(=O)NC3=O)cc1)O2` (stereo not shown) [Troglitazone, reference compound] showed an inhibition in vivo at 300 mg/kg in series [1] (Mus musculus, po, 300 mg/kg, control drug) of 34%.

The compound `CCOc1cc(OCCc2nc(-c3ccccc3)oc2C)ccc1NS(=O)(=O)C(F)(F)F` [Compound 40] yielded a melting point of 133 to 135 °C. Moreover, the inhibition in vivo at 30 mg/kg in series [1] (setting [3]) was determined as 53.4%.
